Test results from US11882828B2, “Mosquito vector control compositions, methods and products utilizing same” (priority 2015, dated 2024).

Assays:
[1] = tested on: Aedes aegypti (Yellow fever mosquito); test: whole plant or invertebrate; details: Aedes aegypti
Experimental: […] Once the deposits were dry, five non-blood fed adult female Aedes aegypti (between two to five days old) were added to each well, and sustained with a 10% sucrose solution in a cotton wool plug. Assessment of the knockdown after 1 hour, and mortality after 48 hours was carried out.
(§1) In case of multiple tests, the mean value is reported.

[2] = tested on: Anopheles stephensi (Indian malaria mosquito); test: whole plant or invertebrate; details: Anopheles stephensi
Experimental: […] Once the deposits were dry, five non-blood fed adult female Anopheles stephensi (between two to five days old) were added to each well, and sustained with a 10% sucrose solution in a cotton wool plug. Assessment of the knockdown after 1 hour, and mortality after 48 hours was carried out.
as §1

Aedes aegypti [3] = test: whole plant or invertebrate; details: Aedes aegypti, 48 h
Summary of the method: (§2)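 Non-blood-fed adult females (2–5 days old), ten per well, were placed on dried ethanol deposits of the test compound at a defined concentration and fed 10% sucrose. Mortality was scored at 48 hours as the mean of two replicates.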

Anopheles stephensi [4] = test: whole plant or invertebrate; details: Anopheles stephensi, 48 h
Summary of the method: as §2

Ae. Aegypti New Orleans = test: Example B4: cross resistance study, 6-well plate; type: in vivo
Experimental: (§3) In each study, a set of plates were infested with a known insecticide susceptible strain of mosquitoes from the same genera as the resistant strains.
(§4) Assessment of the knockdown after 60 minutes and mortality after 24 hours was carried out. Each treatment was replicated a minimum of four times, with the mean knockdown or mortality recorded.
(§5) A comparison of the knockdown and mortality of the resistant strain of mosquitoes was made to that of the susceptible to identify evidence of cross resistance.

Ae. aegypti Caymon = test: Example B4: cross resistance study, 6-well plate; type: in vivo
Experimental: as §3, §4, §5

An. Arabiensis Moz sus = test: Example B4: cross resistance study, 6-well plate; type: in vivo
Experimental: as §3, §4, §5

An. Arabiensis Ndjamina = test: Example B4: cross resistance study, 6-well plate; type: in vivo
Experimental: as §3, §4, §5

An. Gambiae Kisumu rdl = test: Example B4: cross resistance study, 6-well plate; type: in vivo
Experimental: as §3, §4, §5

An. Gambiae Kisumu sus [5] = test: Example B4: cross resistance study, 6-well plate; type: in vivo
Experimental: as §3, §4, §5

An. Gambiae Tiassalé [6] = test: Example B4: cross resistance study, 6-well plate; type: in vivo
Experimental: as §3, §4, §5

An. stephensi [7] = test: Example B4: cross resistance study, 6-well plate; type: in vivo
Experimental: as §3, §4, §5

An. Gambiae Kisumu sus [8] = test: Example B5: bottle based cross resistance study (CDC bottle assay); type: in vivo
An. Gambiae Tiassalé [9] = test: as above; type: in vivo
An. stephensi [10] = test: as above; type: in vivo
Aedes aegypti [11] = test: Example B7: evaluation of insecticide impregnated polymer surfaces; type: in vivo; details: AI content 2 wt %, polymer 4 to 6 weeks old, after one hour
Summary of the method: (§6)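 Methoxyacrylates were melt-blended into LDPE, HDPE or PP and moulded into sheets about 0.1 mm thick. Ten 3–5-day-old non-blood-fed adult females were held 24 h on 10% sucrose, then confined in a Petri dish under the treated sheet for 1 h. Knockdown was scored at 1 h and mortality 24 h after exposure.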

Anopheles stephensi [12] = test: as above; type: in vivo; details: AI content 2 wt %, after one hour
Summary of the method: as §6

SMILES: CCC(=N\OC)/C(C)=N/OCc1ccccc1/C(=C\OC)C(=O)OC [Compound 4, Methyl(E)-3-methoxy-2-[2-[[(E)-[(2E)-2-methoxyimino-1-methyl-butylidene]amino]-oxymethyl]phenyl]prop-2-enoate]
- pest or weed control at 20 ppm ([1]; 1 h, read-out: Knockdown): 100%
- mortality at 20 ppm ([1]; 48 h): 100%
- pest or weed control at 20 ppm ([2]; 1 h, read-out: Knockdown): 80%
- mortality at 20 ppm ([2]; 48 h): 100%
- mortality at 5 ppm (Aedes aegypti [3]): 78%
- mortality at 5 ppm (Anopheles stephensi [4]): 98%
- Knockdown (Ae. Aegypti New Orleans; 2.00 ppm, after 60 minutes, New Orleans): 75%
- mortality at 2 ppm (Ae. Aegypti New Orleans; Aedes aegypti, 24 h): 100%
- Knockdown (Ae. aegypti Caymon; 2.00 ppm, after 60 minutes, Caymon): 45%
- mortality at 2 ppm (Ae. aegypti Caymon; Aedes aegypti, 24 h): 90%
- Knockdown (An. Arabiensis Moz sus; 2.00 ppm, after 60 minutes, Moz sus): 0%
- mortality at 2 ppm (An. Arabiensis Moz sus; Anopheles arabiensis, 24 h): 95%
- Knockdown (An. Arabiensis Ndjamina; 2.00 ppm, after 60 minutes, Ndjamina): 100%
- mortality at 2 ppm (An. Arabiensis Ndjamina; Anopheles arabiensis, 24 h): 100%
- Knockdown (An. Gambiae Kisumu rdl; 2.00 ppm, after 60 minutes, Kisumu rdl): 30%
- mortality at 2 ppm (An. Gambiae Kisumu rdl; Anopheles gambiae, 24 h): 100%
- Knockdown (An. Gambiae Kisumu sus [5]; 2.00 ppm, after 60 minutes, Kisumu sus): 67%
- mortality at 2 ppm (An. Gambiae Kisumu sus [5]; Anopheles gambiae, 24 h): 95%
- Knockdown (An. Gambiae Tiassalé [6]; 2.00 ppm, after 60 minutes, Tiassalé): 70%
- mortality at 2 ppm (An. Gambiae Tiassalé [6]; Anopheles gambiae, 24 h): 100%
- Knockdown (An. stephensi [7]; 2.00 ppm, after 60 minutes, An. stephensi): 95%
- mortality at 2 ppm (An. stephensi [7]; Anopheles stephensi, 24 h): 100%
- Knockdown (%) at 15 mins (An. Gambiae Kisumu sus [8]; 20 ppm, bottle, Kisumu sus): 48%
- Knockdown (%) at 60 mins (An. Gambiae Kisumu sus [8]; 20 ppm, bottle, Kisumu sus): 100%
- mortality at 20 ppm (An. Gambiae Kisumu sus [8]; Anopheles gambiae): 100%
- Knockdown (%) at 15 mins (An. Gambiae Tiassalé [9]; 20 ppm, bottle, Tiassalé): 17%
- Knockdown (%) at 60 mins (An. Gambiae Tiassalé [9]; 20 ppm, bottle, Tiassalé): 96%
- mortality at 20 ppm (An. Gambiae Tiassalé [9]; Anopheles gambiae): 77%
- Knockdown (%) at 15 mins (An. stephensi [10]; 20 ppm, bottle, An. stephensi): 10%
- Knockdown (%) at 60 mins (An. stephensi [10]; 20 ppm, bottle, An. stephensi): 100%
- mortality at 20 ppm (An. stephensi [10]; Anopheles stephensi): 80%
- knock-down (Aedes aegypti [11]; HDPE): 53%
- knock-down (Aedes aegypti [11]; LDPE): 63%
- knock-down (Aedes aegypti [11]; PP): 63%
- knock-down (Anopheles stephensi [12]; HDPE, polymer 4 to 6 weeks old): 93%
- knock-down (Anopheles stephensi [12]; HDPE, polymer 6 to 8 weeks old): 77%
- knock-down (Anopheles stephensi [12]; LDPE, polymer 4 to 6 weeks old): 87%
- knock-down (Anopheles stephensi [12]; LDPE, polymer 6 to 8 weeks old): 70%
- knock-down (Anopheles stephensi [12]; PP, polymer 4 to 6 weeks old): 100%
- knock-down (Anopheles stephensi [12]; PP, polymer 6 to 8 weeks old): 90%
